From US7465824B2, “Process for the production of high purity aromatic carboxylic acids using a benzoic acid and water solvent for oxidation and purification” (BP Corporation North America Inc., priority 2007, dated 2008) come the findings set out here.

The data set in a line: Solubility of TA in a solvent containing 50% benzoic acid and 50% water at various temperatures. It counts as physicochemical. As to conditions: solvent 50% benzoic acid and 50% water. On the procedure:
The solubility of TA in a solvent containing 50% benzoic acid and 50% water was determined at various temperatures and is shown below in Table 1.

As for `O=C(O)c1ccc(C(=O)O)cc1` [TA, terephthalic acid], the “solubility of TA given in Example 1” value (at 455 °F) worked out at 10.9%. In addition, the “TA Solubility” value (Temp 397 °F) amounted to 5.04 g TA/100 g Solution; the “TA Solubility” value (Temp 436 °F) was found to be 8.58 g TA/100 g Solution; the “TA Solubility” value (Temp 446 °F) was determined as 9.59 g TA/100 g Solution; the “TA Solubility” value (Temp 451 °F) was 9.77 g TA/100 g Solution; the “TA Solubility” value (Temp 455 °F) is listed as 10.91 g TA/100 g Solution; the “TA Solubility” value (Temp 477 °F) is 13.49 g TA/100 g Solution. Moreover, the “TA Solubility” value (Temp 505 °F) was 18.71 g TA/100 g Solution.
